What follows are molecules tested against melatonin receptor (assay: Inhibition of 2-[125I]iodomelatonin binding (forebrain membrane homogenate)). Details: forebrains of 7-day-old chicken; 80 pM 2-[^125I]iodomelatonin; 90 minutes at 25°C; non-specific binding with 10^-5M melatonin; log-probit analysis; read-out: IC50 (nM), Action of inhibiting 2-[^125I]iodomelatonin binding.
Parameters: species or system chicken (white leghorn)
Procedure: Inhibition of 2-[^125I]iodomelatonin binding activity
The forebrains of 7-day-old chicken (white leghorn) were homogenized with ice-cold assay buffer (50 mM Tris-HCl, pH 7.7 at 25°C) and centrifuged at 44,000 x g for 10 minutes at 4°C. The pellet was washed once with the same buffer and storred at -30°C until use. For the assay, the frozen tissue pellet was thawed and homogenized with the assay buffer to make a protein concentration of 0.3 - 0.4 mg/ml. An 0.4 ml aliquot of this homogenate was incubated with a test compound and 80 pM 2-[^125I]iodomelatonin in a total volume of 0.5 ml for 90 minutes at 25°C. The reaction was terminated by adding 3 ml of ice-cold assay buffer immediately followed by vaccum filtration on Whatman GF/B which was further washed twice with 3 ml of ice-cold assay buffer. The radioactivity on the filter was determined by means of γ-counter. […] The 50% inhibiting concentration (IC50) was determined by the log-probit analysis.
`CCC(=O)NCCC1CCc2ccc3c(c21)CCO3` (stereo not drawn) [Example 2, N-[2-(1,6,7,8-tetrahydro-2H-indeno[5,4-b]furan-8-yl)ethyl]propionamide] gave an IC50 of 0.13 nM. In the case of `CC(=O)NCCC1CCc2ccc3c(c21)CCO3` (stereo not drawn) [Example 1, N-[2-(1,6,7,8-tetrahydro-2H-indeno[5,4-b]furan-8-yl)ethyl]acetamide], the IC50 is reported as 0.28 nM. For `CCC(=O)NCCc1c[nH]c2ccc3c(c12)CCCO3` [Example 4, N-[2-(3,7,8,9-tetrahydropyrano[3,2-e]indol-1-yl)ethyl]propionamide], the IC50 was 0.13 nM. `CCCC(=O)NCCC1CNc2ccc3c(c21)CCCO3` (stereo not drawn) [Example 8, N-[2-(1,2,3,7,8,9-hexahydropyrano[3,2-e]indol-1-yl)ethyl]butyramide] showed an IC50 of 0.22 nM. With `CC(=O)NCCc1c[nH]c2ccc3c(c12)CCCO3` [Example 3, N-[2-(3,7,8,9-tetrahydropyrano[3,2-e]indol-1-yl)ethyl]acetamide] the IC50 was 0.46 nM. Work on `CCC(=O)NCC[C@@H]1CCc2ccc3c(c21)CCO3` [Example 11, (S)-N-[2-(1,6,7,8-tetrahydro-2H-indeno[5,4-b]-furan-8-yl)ethyl]propionamide] yielded an IC50 of 0.048 nM. In the case of `CCCC(=O)NCCC1CCc2ccc3c(c21)CCO3` (stereo not drawn) [Example 13, N-[2-(1,6,7,8-tetrahydro-2H-indeno[5,4-b]furan-8-yl)ethyl]butyramide], the IC50 is reported as 0.12 nM. Molecule `CCCC(=O)NCCc1c[nH]c2ccc3c(c12)CCCO3` [Example 5, N-[2-(3,7,8,9-tetrahydropyrano[3,2-e]indol-1-yl)ethyl]butyramide] has an IC50 of 0.082 nM. `CC(=O)NCCC1=CCc2ccc3c(c21)CCO3` [Example 14, N-[2-(1,6-dihydro-2H-indeno[5,4-b]furan-8-yl)ethyl]acetamide] was tested, and the IC50 was 0.24 nM. For `CCC(=O)NCCC1CNc2ccc3c(c21)CCCO3` (stereo not drawn) [Example 7, N-[2-(1,2,3,7,8,9-hexahydropyrano[3,2-e]indol-1-yl)ethyl]propionamide], the IC50 was 0.46 nM. Work on `CCC(=O)NCCC1=CCc2ccc3c(c21)CCO3` [Example 15, N-[2-(1,6-dihydro-2H-indeno[5,4-b]furan-8-yl)-ethyl]propionamide] yielded an IC50 of 0.1 nM. In the case of `CCCC(=O)NCCC1=CCc2ccc3c(c21)CCO3` [Example 16, N-[2-(1,6-dihydro-2H-indeno[5,4-b]furan-8-yl)-ethyl]butyramide], the IC50 is reported as 0.095 nM.
